≈ marks a conversion by molar mass, not a printed value. Where two headings read alike, the source gives them in different places. Peptide text beside a SMILES is read from it.
Assays:
F. oxysporum = assay: Antifungal MIC assay in SFM; type: cell-based
P. capsici = assay: Antifungal MIC assay in SFM; type: cell-based
C. albicans = assay: Peptide or protein/Fluconazole combination, MIC and FICI; conditions: Candida albicans
C. glabrata = assay: as above; conditions: Nakaseomyces glabratus
C. parapsilosis = assay: Antifungal MIC, CLSI M27/M38, half-strength potato dextrose broth; type: cell-based, Candida parapsilosis; conditions: C. parapsilosis ATCC 22019; 24-72 hours
Description: (§1) Testing for antifungal activity used half-strength potato dextrose broth for peptides and RPMI for comparator antifungals fluconazole and voriconazole. CLSI M27 and M38 methodologies used for to measure MICs. Minimal Inhibitory Concentration (MIC) is the concentration of the compound, protein, or peptide at which there is no significant growth of the microorganism relative to the growth of the microorganism in growth medium lacking the compound, protein, or peptide.
(§2) […] The concentration range for peptides in potato dextrose broth was 0.06-2 mcg/ml, the concentration range for fluconazole was 0.125-64 mcg/ml, and the concentration range for voriconazole was 0.03-16 mcg/ml. MICs were determined at 24-72 hours.

Fusarium (F. solani) = assay: as above; type: cell-based; conditions: Fusarium F4 (F. solani)
Description: as §1, §2

Candida albicans = assay: as above; type: cell-based
Description: as §1, §2

Candida auris = assay: as above; type: cell-based
Description: as §1, §2

Fusarium (F. oxysporum) = assay: as above; type: cell-based
Description: as §1, §2

P. variotii = assay: as above; type: cell-based; conditions: P. variotii MYA-363; 24-72 hours
Description: as §1, §2

Aspergillus fumigatus = assay: as above; type: cell-based
Description: as §1, §2

C. krusei = assay: as above; type: cell-based; conditions: C. krusei ATCC 6258; 24-72 hours
Description: as §1, §2

Coccidioides sp. = type: cell-based

C[C@@H](O)[C@H](NC(=O)[C@H](CS)NC(=O)[C@H](Cc1ccccc1)NC(=O)[C@H](CS)NC(=O)[C@H](CCCNC(=N)N)NC(=O)[C@H](CCCNC(=N)N)NC(=O)[C@H](CCCNC(=N)N)NC(=O)[C@H](Cc1ccccc1)NC(=O)CNC(=O)[C@H](CCCNC(=N)N)NC(=O)[C@H](CS)NC(=O)[C@H](CCCNC(=N)N)NC(=O)CNC(=O)CN)C(=O)N[C@H](C(=O)N[C@@H](Cc1c[nH]cn1)C(=O)N[C@@H](CS)C(N)=O)[C@@H](C)O [GMA4C_AC, reference compound] (H-GGRCRGFRRRCFCTTHC-NH2; N-terminus assumed)
F. oxysporum MIC (F. oxysporum): 6 µM
Antifungal activity in presence of 100 mM NaCl or 100 mM KCl (Botrytis cinerea): retain their antifungal activity
B. cinerea MIC (Botrytis cinerea): 1.5 to 3.0 µM
MIC (μM) Botrytis cinerea (Botrytis cinerea): 3 µM (≈ 6.05 µg/mL)
MIC Values (μM) against B. cinerea (Botrytis cinerea): 3 µM (≈ 6.05 µg/mL)
SFM + 2 mM CaCl2 MIC (Botrytis cinerea): >6 µM
SFM + 100 mM KCl MIC (Botrytis cinerea): 6 µM
SFM + 100 mM NaCl MIC (Botrytis cinerea): 3 µM
SFM MIC (Botrytis cinerea): 3 µM
F. graminearum MIC (Fusarium graminearum): 3 µM
MIC (μM) Fusarium graminearum (Fusarium graminearum): 3 µM (≈ 6.05 µg/mL)
MIC Values (μM) against F. graminearum (Fusarium graminearum): 6 µM (≈ 12.1 µg/mL)
P. capsici MIC (P. capsici): 1.5 µM

OC(Cn1cncn1)(Cn1cncn1)c1ccc(F)cc1F [Fluconazole]
MIC (C. albicans; read-out: MIC alone (μM)): 206 µM
MIC (C. albicans; read-out: MIC alone μg/ml): 64 µg/mL
MIC (C. glabrata; read-out: MIC alone (μM)): 206 µM
MIC (C. glabrata; read-out: MIC alone μg/ml): 64 µg/mL

CC[C@H](C)[C@H](NC(=O)[C@H](CCCNC(=N)N)NC(=O)[C@@H](NC(=O)[C@H](CS)NC(=O)[C@H](Cc1ccccc1)NC(=O)[C@H](CS)NC(=O)[C@H](CCCNC(=N)N)NC(=O)[C@H](CCCNC(=N)N)NC(=O)[C@H](CCCNC(=N)N)NC(=O)[C@H](Cc1ccccc1)NC(=O)CNC(=O)[C@H](CCCNC(=N)N)NC(=O)[C@H](CS)NC(=O)[C@H](CCCNC(=N)N)NC(=O)CNC(=O)CN)[C@@H](C)O)C(=O)N[C@@H](CS)C(N)=O [GMA4C_V2A] (H-GGRCRGFRRRCFCTRIC-NH2; N-terminus assumed)
MIC 100% (C. parapsilosis): 8 µg/mL (≈ 3.91 µM)
B. cinerea MIC (Botrytis cinerea): 3 µM
MIC (μM) Botrytis cinerea (Botrytis cinerea): 6 µM (≈ 12.3 µg/mL)
MIC Values (μM) against B. cinerea (Botrytis cinerea): 3 µM (≈ 6.14 µg/mL)
SFM + 2 mM CaCl2 MIC (Botrytis cinerea): >6 µM
SFM + 100 mM KCl MIC (Botrytis cinerea): 6 µM
SFM + 100 mM NaCl MIC (Botrytis cinerea): 3 µM
SFM MIC (Botrytis cinerea): 6 µM
MIC 100% (Fusarium (F. solani)): 8 µg/mL (≈ 3.91 µM)
MIC 100% (Candida albicans; Candida albicans ATCC 90028): 16 µg/mL (≈ 7.82 µM)
MIC 100% (Candida albicans; Candida albicans CA3): 16 µg/mL (≈ 7.82 µM)
MIC 100% (Candida albicans; Candida albicans SC5314): 16 µg/mL (≈ 7.82 µM)
MIC 100% (Candida auris; Candida auris DI17-46): 16 µg/mL (≈ 7.82 µM)
MIC 100% (Candida auris; Candida auris DI17-47): 16 µg/mL (≈ 7.82 µM)
MIC 100% (Candida auris; Candida auris DI17-48): 16 µg/mL (≈ 7.82 µM)
MIC 100% (Fusarium (F. oxysporum); Fusarium F1 (F. oxysporum)): 8 µg/mL (≈ 3.91 µM)
MIC 100% (Fusarium (F. oxysporum); Fusarium F2 (F. oxysporum)): 16 µg/mL (≈ 7.82 µM)
MIC 100% (P. variotii): 8 µg/mL (≈ 3.91 µM)
MIC 100% (Aspergillus fumigatus; Aspergillus fumigatus AF293): 32 µg/mL (≈ 15.6 µM)
MIC 100% (Aspergillus fumigatus; Aspergillus fumigatus DI15-106): >32 µg/mL
MIC 100% (Aspergillus fumigatus; Aspergillus fumigatus DI15-116): >32 µg/mL
MIC 100% (C. krusei): 16 µg/mL (≈ 7.82 µM)
MIC 100% (Coccidioides sp.; Coccidioides sp. Cocci1): 8 µg/mL (≈ 3.91 µM)
MIC 100% (Coccidioides sp.; Coccidioides sp. Cocci2): 16 µg/mL (≈ 7.82 µM)
MIC 100% (Coccidioides sp.; Coccidioides sp. DI17-143): 16 µg/mL (≈ 7.82 µM)
